Experimental data as given in patent publication US20020137929A1, “1 - (3-heterocyclylphenyl) isothiourea, -isourea, -guanidine and -amidine herbicidal agents” (Intellectual Property Department, BASF Aktiengesellschaft, priority 1998, published 2002).

Key:
[1] = system: IPOHE (Morningglory, Ivyleaf); assay: Postemergence herbicidal evaluation; format: in vivo, Ipomoea hederacea
Summary of the method: (§1)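 Visual 0-9 injury score (stand, vigor, malformation, size, chlorosis, appearance vs untreated) taken four to five weeks post-spray, averaged across repeat tests. Test plants about two weeks old; foliar spray of acetone/water (1:1) with 0.5% surfactant delivering ~0.0156-0.500 kg active/ha.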

[2] = system: ECHORC (Watergrass (Calif.)); assay: Postemergence weed control under flooded paddy conditions; format: in vivo, Echinochloa oryzoides; settings: postemergence weeds, 3-4 weeks after treatment
Summary of the method: (§2)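 Containers holding 3–5 cm weeds and rice at 1.5–2.5 leaves are flooded to 1.5–3 cm above soil. Compound in 50/50 v/v aqueous/acetone is then added directly to the water, about 0.0313–0.500 kg/ha. Plants are kept in the greenhouse and rated 0–9 visually at 3–4 weeks.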

[3] = system: ECHORC (Watergrass (Calif.)); assay: Preemergence weed control under flooded paddy conditions; format: in vivo, Echinochloa oryzoides; settings: rated 3-4 weeks after treatment
Summary of the method: (§3)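 Seeds or propagules sown in top 0.5 cm of silt loam soil, flooded 1.5 to 3 cm above surface throughout. Compound in 50/50 v/v aqueous/acetone pipetted into flood water at about 0.0313 to 0.500 kg/ha. Visual 0-9 rating versus control after three to four weeks in greenhouse.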

MOOVA (Monochoria) = assay: as above; format: in vivo, Monochoria vaginalis; settings: rated 3-4 weeks after treatment
Summary of the method: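 Herbicidal effect is scored visually on a 0-9 scale against an untreated control, three to four weeks after compounds are pipetted into the flood water (1.5 to 3 cm deep) over seeds planted in silt loam at 0.5 cm depth. Rates: about 0.0313 to 0.500 kg/ha.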

[4] = system: IPOHE (Morningglory, Ivyleaf); assay: Preemergence herbicidal evaluation; format: in vivo, Ipomoea hederacea; settings: rated 4-5 weeks after treatment
Summary of the method: (§4)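 Seeds were planted in potting soil in cups, then sprayed preemergence with the test compound in aqueous acetone at about 0.0156 to 0.500 kg per hectare. Cups were kept under greenhouse conditions and visually rated 4–5 weeks after treatment on a 0–9 scale against an untreated control.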

SETVI (Foxtail, Green) [5] = assay: Postemergence herbicidal evaluation; format: in vivo, Setaria viridis
Summary of the method: as §1

ZEAMX (Corn, Field) = assay: Preemergence herbicidal evaluation; format: in vivo, Zea mays; settings: rated 4-5 weeks after treatment
Summary of the method: as §4

CYPIR (Rice Flatsedge) = assay: Preemergence weed control under flooded paddy conditions; format: in vivo, Cyperus iria; settings: rated 3-4 weeks after treatment
Summary of the method: as §3

ABUTH (Velvetleaf) = assay: Preemergence herbicidal evaluation; format: in vivo, Abutilon theophrasti; settings: rated 4-5 weeks after treatment
Summary of the method: as §4

SETVI (Foxtail, Green) [6] = assay: Preemergence herbicidal evaluation; format: in vivo, Setaria viridis; settings: rated 4-5 weeks after treatment
Summary of the method: as §4

GALAP (Galium) = assay: Postemergence herbicidal evaluation; format: in vivo, Galium aparine
Summary of the method: as §1

ECHCG (Barnyardgrass) = assay: Preemergence herbicidal evaluation; format: in vivo, Echinochloa crus-galli; settings: rated 4-5 weeks after treatment
Summary of the method: as §4

[7] = system: TRZAWR (Wheat, Winter, cv Riband); assay: Postemergence herbicidal evaluation; format: in vivo, Triticum aestivum
Summary of the method: as §1

[8] = system: SAGPY (Arrowhead (Pygmaea)); assay: Postemergence weed control under flooded paddy conditions; format: in vivo, Sagittaria pygmaea; settings: postemergence weeds, 3-4 weeks after treatment
Summary of the method: as §2

C[C@@H](C(=O)O)N1C(=O)CS/C1=N/c1cc(-n2c(=O)cc(C(F)(F)F)n(C)c2=O)c(F)cc1Cl [Compound 51, 2-{{2-Chloro-5-[3,6-dihydro-3-methyl-2,6-dioxo-4-(trifluoromethyl)-1(2H)-pyrimidinyl]-4-fluoro-phenyl}imino}-α-methyl-4-oxo-3-thiazolidineacetic acid, L-]
Postemergence herbicidal rating IPOHE ([1]; Rate 0.0158 kg/ha): 9.0
Postemergence herbicidal rating IPOHE ([1]; Rate 0.0315 kg/ha): 9.0
Postemergence herbicidal rating IPOHE ([1]; Rate 0.0630 kg/ha): 9.0
Herbicidal rating ECHORC ([2]; rate 0.0625 kg/ha): 0.0
Herbicidal rating ECHORC ([2]; rate 0.1250 kg/ha): 0.0
Herbicidal rating ECHORC ([2]; rate 0.2500 kg/ha): 0.0
Herbicidal rating ECHORC ([3]; 0.0625 kg/ha): 0.0
Herbicidal rating ECHORC ([3]; 0.1250 kg/ha): 0.0
Herbicidal rating ECHORC ([3]; 0.2500 kg/ha): 0.0
Herbicidal rating MOOVA (MOOVA (Monochoria); 0.0625 kg/ha): 3.0
Herbicidal rating MOOVA (MOOVA (Monochoria); 0.1250 kg/ha): 4.0
Herbicidal rating MOOVA (MOOVA (Monochoria); 0.2500 kg/ha): 4.0
Preemergence herbicidal rating IPOHE ([4]; rate 0.0156 kg/ha): 2.0
Preemergence herbicidal rating IPOHE ([4]; rate 0.0313 kg/ha): 9.0
Preemergence herbicidal rating IPOHE ([4]; rate 0.0625 kg/ha): 9.0
Preemergence herbicidal rating IPOHE ([4]; rate 0.1250 kg/ha): 9.0
Preemergence herbicidal rating IPOHE ([4]; rate 0.2500 kg/ha): 9.0
Postemergence herbicidal rating SETVI (SETVI (Foxtail, Green) [5]; Rate 0.0158 kg/ha): 7.0
Postemergence herbicidal rating SETVI (SETVI (Foxtail, Green) [5]; Rate 0.0315 kg/ha): 9.0
Postemergence herbicidal rating SETVI (SETVI (Foxtail, Green) [5]; Rate 0.0630 kg/ha): 9.0
Preemergence herbicidal rating ZEAMX (ZEAMX (Corn, Field); rate 0.0156 kg/ha): 1.0
Preemergence herbicidal rating ZEAMX (ZEAMX (Corn, Field); rate 0.0313 kg/ha): 1.0
Preemergence herbicidal rating ZEAMX (ZEAMX (Corn, Field); rate 0.0625 kg/ha): 1.0
Preemergence herbicidal rating ZEAMX (ZEAMX (Corn, Field); rate 0.1250 kg/ha): 2.0
Preemergence herbicidal rating ZEAMX (ZEAMX (Corn, Field); rate 0.2500 kg/ha): 6.0
Herbicidal rating CYPIR (CYPIR (Rice Flatsedge); 0.0625 kg/ha): 2.0
Herbicidal rating CYPIR (CYPIR (Rice Flatsedge); 0.1250 kg/ha): 3.0
Herbicidal rating CYPIR (CYPIR (Rice Flatsedge); 0.2500 kg/ha): 6.0
Preemergence herbicidal rating ABUTH (ABUTH (Velvetleaf); rate 0.0156 kg/ha): 9.0
Preemergence herbicidal rating ABUTH (ABUTH (Velvetleaf); rate 0.0313 kg/ha): 9.0
Preemergence herbicidal rating ABUTH (ABUTH (Velvetleaf); rate 0.0625 kg/ha): 9.0
Preemergence herbicidal rating ABUTH (ABUTH (Velvetleaf); rate 0.1250 kg/ha): 7.0
Preemergence herbicidal rating ABUTH (ABUTH (Velvetleaf); rate 0.2500 kg/ha): 9.0
Preemergence herbicidal rating SETVI (SETVI (Foxtail, Green) [6]; rate 0.0156 kg/ha): 1.0
Preemergence herbicidal rating SETVI (SETVI (Foxtail, Green) [6]; rate 0.0313 kg/ha): 0.0
Preemergence herbicidal rating SETVI (SETVI (Foxtail, Green) [6]; rate 0.0625 kg/ha): 3.0
Preemergence herbicidal rating SETVI (SETVI (Foxtail, Green) [6]; rate 0.1250 kg/ha): 6.0
Preemergence herbicidal rating SETVI (SETVI (Foxtail, Green) [6]; rate 0.2500 kg/ha): 9.0
Postemergence herbicidal rating GALAP (GALAP (Galium); Rate 0.0158 kg/ha): 4.0
Postemergence herbicidal rating GALAP (GALAP (Galium); Rate 0.0315 kg/ha): 9.0
Postemergence herbicidal rating GALAP (GALAP (Galium); Rate 0.0630 kg/ha): 9.0
Preemergence herbicidal rating ECHCG (ECHCG (Barnyardgrass); rate 0.0156 kg/ha): 0.0
Preemergence herbicidal rating ECHCG (ECHCG (Barnyardgrass); rate 0.0313 kg/ha): 0.0
Preemergence herbicidal rating ECHCG (ECHCG (Barnyardgrass); rate 0.0625 kg/ha): 1.0
Preemergence herbicidal rating ECHCG (ECHCG (Barnyardgrass); rate 0.1250 kg/ha): 1.0
Preemergence herbicidal rating ECHCG (ECHCG (Barnyardgrass); rate 0.2500 kg/ha): 1.0
Postemergence herbicidal rating TRZAWR ([7]; Rate 0.0158 kg/ha): 4.0
Postemergence herbicidal rating TRZAWR ([7]; Rate 0.0315 kg/ha): 5.5
Postemergence herbicidal rating TRZAWR ([7]; Rate 0.0630 kg/ha): 7.0
Herbicidal rating SAGPY ([8]; rate 0.0625 kg/ha): 0.0
Herbicidal rating SAGPY ([8]; rate 0.1250 kg/ha): 0.0
Herbicidal rating SAGPY ([8]; rate 0.2500 kg/ha): 0.0
